The values below come from ChEMBL document CHEMBL1201862, “PubChem BioAssay data set” (2004).

SMILES strings stand for the structures.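 The compound was tested at five concentrations on cells cultured in 96-well plates, with a 48-hour exposure period. GI50 marks 50% less growth.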 Active and inactive are the calls of the source. Cut-off read from the data, not from the text of the source: active = GI50 up to about 1.1 µM and inactive = higher.

Test systems include A549; EKVX; UO-31; ACHN; SK-OV-3; RPMI-8226; UACC-62; SNB-75; MOLT-4; CAKI-1; OVCAR-3; CCRF-CEM; SF-268; OVCAR-4; RXF 393; SR; HT-29; Hs-578T; SN12C; SK-MEL-2.
What all share (assay): NCI tumour cell line growth inhibition, 48 h

`CCOP(=O)(OCC)C(F)(F)Cc1cnc(C)c2c1COC(C)(C)O2`: the GI50 with A549, with EKVX, in the test with UO-31, with ACHN, in the test on SK-OV-3 and with RPMI-8226 was > 10 µM (inactive) throughout. Further, the GI50 in the test on UACC-62, with SNB-75, in the test with MOLT-4, in the test with CAKI-1, with OVCAR-3 and in the test on CCRF-CEM was > 10 µM (inactive) each time. The GI50 with SF-268, in the test with OVCAR-4, in the test with RXF 393, in the test on SR, in the test with HT-29 and with Hs-578T was > 10 µM (inactive) throughout. The GI50 in the test with SN12C and in the test on SK-MEL-2 was > 10 µM (inactive) throughout.
On to `CCOP(=O)(OCC)C(C#N)Cc1ccco1` (stereo not given), for which the GI50 with A549, in the test with EKVX, in the test with UO-31, in the test with ACHN, in the test with SK-OV-3 and in the test on RPMI-8226 was > 10 µM (inactive) throughout. Moreover, the GI50 with UACC-62 was > 10 µM (inactive); with SNB-75 it was 5.94 µM (inactive); in the test on MOLT-4 it was > 10 µM (inactive); in the test with CAKI-1 it was > 10 µM (inactive); in the test with OVCAR-3 it was > 10 µM (inactive); in the test with CCRF-CEM it was > 10 µM (inactive). Further, the GI50 with SF-268, with OVCAR-4, in the test with RXF 393, with SR, in the test with HT-29 and with Hs-578T was > 10 µM (inactive) in each case. The GI50 in the test with SN12C and in the test with SK-MEL-2 was > 10 µM (inactive) throughout.
As to `CCc1nc(N)nc(N)c1-c1ccc2nn(-c3ccccc3)[n+]([O-])c2c1`, the GI50 in the test on A549 was 0.378 µM (active); in the test on EKVX, 7.96 µM (inactive); in the test on UO-31, 7.13 µM (inactive); in the test on ACHN, 1.76 µM (inactive); with SK-OV-3, 39.1 µM (inactive); in the test with RPMI-8226, 8.24 µM (inactive). In addition, the GI50 with UACC-62 was 1.02 µM (active); in the test on SNB-75 it was 21.3 µM (inactive); in the test on MOLT-4, 2.84 µM (inactive); in the test on CAKI-1, 4.47 µM (inactive); in the test with OVCAR-3, 7.62 µM (inactive); with CCRF-CEM, 1.6 µM (inactive). Moreover, the GI50 with SF-268 is 5.12 µM (inactive); in the test with OVCAR-4, 11.9 µM (inactive); in the test on RXF 393, 10.3 µM (inactive); in the test with SR, 1.35 µM (inactive); in the test with HT-29, 1.26 µM (inactive); with Hs-578T, 17.9 µM (inactive). Besides, the GI50 is 9.38 µM (inactive) in the test with SN12C and 14.3 µM (inactive) with SK-MEL-2.
As to `O=P(NC12CC3CC(CC(C3)C1)C2)(N1CC1)N1CC1`, the GI50 was 26.5 µM (inactive) in the test with A549; > 100 µM (inactive) in the test with EKVX; 30.5 µM (inactive) in the test with UO-31; 4.67 µM (inactive) in the test on ACHN; > 55.5 µM (inactive) in the test with SK-OV-3; > 66.1 µM (inactive) in the test on RPMI-8226. Moreover, the GI50 with UACC-62 is 4.16 µM (inactive); in the test on SNB-75, 22.4 µM (inactive); with MOLT-4 it was 3.3 µM (inactive); in the test on CAKI-1, 1.82 µM (inactive); in the test with OVCAR-3, > 86.1 µM (inactive); in the test with CCRF-CEM, 7.24 µM (inactive). Besides, the GI50 is 12.3 µM (inactive) with SF-268; > 100 µM (inactive) in the test on OVCAR-4; 15.4 µM (inactive) in the test with RXF 393; 2.05 µM (inactive) with SR; 21.2 µM (inactive) in the test with HT-29; 89.3 µM (inactive) in the test with Hs-578T. Also, the GI50 with SN12C is 10.5 µM (inactive); with SK-MEL-2, > 100 µM (inactive).
